The text below walks through data of ChEMBL document CHEMBL1201862, “PubChem BioAssay data set” (2004).

Among the test systems are NCI-H522; HCC 2998; ACHN; OVCAR-4; CAKI-1; HL-60; UACC-257; SNB-19; SK-MEL-28; M14; A498; A549; TK-10; LOX IMVI; SN12C; RPMI-8226; U-251.
Common to all, as to experiment: DTP human tumour cell line panel, 48 h

SMILES strings stand for the structures.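 Growth conditions: 96-well plates. Treatment: test compound, 48 hours, 5 concentrations. Analysis: linear interpolation between bracketing concentrations; unreached endpoints set to highest concentration. GI50 marks 50% less growth.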 Calls of active or inactive are those of the source. Rule as the data show it: active = GI50 up to about 1.1 µM and inactive = higher.

For `CCOC(=O)c1c2ccc(/C=C/c3ccccn3)ccc-2c(C(=O)OCC)c1N`, the GI50 was 91 µM (inactive) in the test on NCI-H522; > 100 µM (inactive) in the test on HCC 2998; 73.5 µM (inactive) in the test on ACHN; 37.6 µM (inactive) with OVCAR-4; > 100 µM (inactive) in the test on CAKI-1; 89.1 µM (inactive) in the test with HL-60. Moreover, the GI50 is > 100 µM (inactive) in the test on UACC-257; > 100 µM (inactive) in the test on SNB-19; 0.361 µM (active) in the test on SK-MEL-28; > 100 µM (inactive) in the test on M14; 24.8 µM (inactive) in the test on A498; > 100 µM (inactive) in the test with A549. Further, the GI50 with TK-10 and in the test with LOX IMVI was > 100 µM (inactive) throughout.

Turning to `C=C(Br)N(CC)CC`, the GI50 in the test with SN12C, in the test with NCI-H522, in the test with HCC 2998, in the test on ACHN, with OVCAR-4 and in the test on CAKI-1 was > 100 µM (inactive) in each case. For the same compound, the GI50 in the test with HL-60, in the test on UACC-257, with SNB-19, in the test on SK-MEL-28, in the test on M14 and with A498 was > 100 µM (inactive) throughout. Besides, the GI50 in the test with RPMI-8226, with U-251, with A549, in the test with TK-10 and in the test on LOX IMVI was > 100 µM (inactive) in each case.

Take `CN(C)C(=S)N=C(Nc1ccccc1)Nc1ccccc1`: the GI50 in the test with SN12C, in the test with NCI-H522, in the test with HCC 2998, in the test with ACHN, in the test on OVCAR-4 and in the test with CAKI-1 was > 100 µM (inactive) each time. Also, the GI50 in the test with HL-60, in the test with UACC-257, with SNB-19, in the test on SK-MEL-28, in the test on M14 and in the test on A498 was > 100 µM (inactive) throughout. For the same compound, the GI50 in the test with RPMI-8226, in the test on U-251, with A549, in the test on TK-10 and in the test on LOX IMVI was > 100 µM (inactive) throughout.

In the case of `CN1CCN=C1c1nnn(-c2ccc([N+](=O)[O-])cc2)c1-c1ccccc1`, the GI50 in the test on SN12C, in the test with NCI-H522, in the test on HCC 2998, in the test with ACHN, in the test on OVCAR-4 and in the test on CAKI-1 was > 100 µM (inactive) in each case. Also, the GI50 in the test with HL-60 was 18.8 µM (inactive); in the test with UACC-257, > 100 µM (inactive); with SNB-19 it was > 100 µM (inactive); with SK-MEL-28, > 100 µM (inactive); in the test with M14, > 100 µM (inactive); with A498 it was > 100 µM (inactive). The GI50 is 94.6 µM (inactive) in the test with U-251, > 100 µM (inactive) in the test with A549, > 100 µM (inactive) in the test on TK-10 and 94.6 µM (inactive) in the test on LOX IMVI.

As for `C#CCN(Cc1ccc2nc(-c3ccccc3)c(Cl)nc2c1)c1ccc(Cl)c(Cl)c1`, the GI50 in the test on SN12C is > 100 µM (inactive); in the test on NCI-H522, > 100 µM (inactive); with HCC 2998, 33.5 µM (inactive); in the test on ACHN, > 100 µM (inactive); in the test on OVCAR-4, > 100 µM (inactive); in the test with CAKI-1, > 100 µM (inactive). Also, the GI50 in the test on HL-60, with UACC-257, with SNB-19, in the test with SK-MEL-28, with M14 and in the test with A498 was > 100 µM (inactive) in each case. The GI50 with U-251, with A549, in the test on TK-10 and with LOX IMVI was > 100 µM (inactive) each time.

In the case of `CC1=CC(=O)NCCN1C`, the GI50 in the test on SN12C, in the test with NCI-H522, in the test on HCC 2998, in the test on ACHN, in the test on OVCAR-4 and with CAKI-1 was > 100 µM (inactive) in each case. The GI50 in the test on HL-60 was 45.9 µM (inactive); with UACC-257, > 100 µM (inactive); in the test on SNB-19, > 100 µM (inactive); in the test with SK-MEL-28 it was > 100 µM (inactive); in the test with M14, > 100 µM (inactive); in the test with A498, > 100 µM (inactive). In addition, the GI50 in the test with U-251 was > 100 µM (inactive); with A549, > 100 µM (inactive); in the test on TK-10, > 100 µM (inactive); in the test on LOX IMVI it was 62.7 µM (inactive).

For `O=C(CC(=O)c1cccc2ccccc12)C(=O)Nc1ccc(Cl)cc1`, the GI50 with SN12C, with NCI-H522, with HCC 2998, in the test with ACHN, in the test with OVCAR-4 and with CAKI-1 was > 100 µM (inactive) each time. For the same compound, the GI50 with HL-60, in the test with UACC-257, in the test with SNB-19, with M14, with A498 and in the test on RPMI-8226 was > 100 µM (inactive) in each case. Also, the GI50 with U-251, with A549, with TK-10 and in the test on LOX IMVI was > 100 µM (inactive) throughout.

`CC(=O)Oc1c2c(c(OC(C)=O)c3c1n(C(C)=O)c1ccccc1n3C(C)=O)n(C(C)=O)c1ccccc1n2C(C)=O`: the GI50 in the test with SN12C was 3.27 µM (inactive); in the test with NCI-H522, 2.3 µM (inactive); in the test on HCC 2998, 3.67 µM (inactive); in the test with ACHN, 9.16 µM (inactive); in the test with OVCAR-4, 16.9 µM (inactive); in the test with CAKI-1, 10.9 µM (inactive). Also, the GI50 was 2.67 µM (inactive) with HL-60; 3.42 µM (inactive) in the test with UACC-257; 12.4 µM (inactive) in the test on SNB-19; 2.89 µM (inactive) in the test with SK-MEL-28; 4.44 µM (inactive) in the test with M14; 18.4 µM (inactive) with A498. Further, the GI50 with RPMI-8226 was 2.48 µM (inactive); with U-251, 10.9 µM (inactive); in the test on A549 it was 6.22 µM (inactive); in the test on LOX IMVI, 2.56 µM (inactive).

As to `c1ccc(NC[Si]23OCCN(CCO2)CCO3)cc1`, the GI50 with SN12C, in the test with NCI-H522, in the test with HCC 2998, in the test on ACHN, in the test with CAKI-1 and in the test on UACC-257 was > 100 µM (inactive) throughout. In addition, the GI50 with SNB-19, in the test on SK-MEL-28, in the test with A498, in the test on RPMI-8226, in the test on U-251 and in the test with A549 was > 100 µM (inactive) each time. Besides, the GI50 with TK-10 was > 100 µM (inactive).

What is called GI50 is the concentration that inhibits growth by half.
